Source: ChEMBL document CHEMBL1151269, “Caucanolides A-F, unusual antiplasmodial constituents from a colombian collection of the gorgonian coral Pseudopterogorgia bipinnata” (J Nat Prod, 2005)
Converted amounts (≈) assume the structure as drawn.

Experiments:
[1] = tested on: Plasmodium falciparum; assay: Antiplasmodial activity against chloroquine-resistant Plasmodium falciparum W2; type: functional, organism-based
[2] = tested on: T47D; assay: Cytotoxicity against human T47D cells; type: functional, cell-based
[3] = tested on: MCF7; assay: Cytotoxicity against human MCF7 cells; type: functional, cell-based
[4] = tested on: Mycobacterium tuberculosis; assay: Antibacterial activity against Mycobacterium tuberculosis H37Rv at 6.25 ug/ml; type: functional
[5] = tested on: CCRF-CEM; assay: Cytotoxicity against human CCRF-CEM cells; type: functional, cell-based
[6] = tested on: NCI-H460; assay: Cytotoxicity against human NCI-H460 cells; type: functional, cell-based

Row | SMILES | IC50 [1] | other results
1 | CO[C@@](C)(/C=C1/C=C(C)C(=O)O1)C[C@@H]1C=C(CCC(C=O)=C(C)C)C(=O)O1 [CAUCANOLIDE E] | ≥ 50 µg/mL | –
2 | CO[C@@]1([C@H]2[C@@H](O)C=C(CCC(C=O)=C(C)C)C(=O)OC2(C)C)C=C(C)C(=O)O1 [CAUCANOLIDE C] | ≥ 50 µg/mL | –
3 | C=C(C)[C@H]([C@@H]1C=C(CCC(C(=O)/N=C/N(C)C)=C(C)C)C(=O)O1)[C@@]1(OC)C=C(C)C(=O)O1 [CAUCANOLIDE B] | ≥ 50 µg/mL | –
4 | CO[C@](C)(/C=C1/C=C(C)C(=O)O1)C[C@@H]1C=C(CCC(C=O)=C(C)C)C(=O)O1 [CAUCANOLIDE F] | ≥ 50 µg/mL | –
5 | C=C(C)[C@H]([C@@H]1C=C(CCC(C=O)=C(C)C)C(=O)O1)[C@@]1(OC)C=C(C)C(=O)O1 [CAUCANOLIDE A] | 17 µg/mL (≈ 45.4 µM) | IC50 [2]: 25.8 µg/mL (≈ 68.9 µM); IC50 [3]: 7.6 µg/mL (≈ 20.3 µM); Activity [4]: 21%; IC50 [5]: 25.5 µg/mL (≈ 68.1 µM); IC50 [6]: 12.5 µg/mL (≈ 33.4 µM)
6 | CO[C@]1(/C=C(\C)C[C@@H]2C=C(CCC(C=O)=C(C)C)C(=O)O2)C=C(C)C(=O)O1 [CAUCANOLIDE D] | 15 µg/mL (≈ 40.1 µM) | –
